The text below walks through data of patent US20110092703A1, “P2X4 RECEPTOR ANTAGONIST” (NIPPON CHEMIPHAR CO., LTD., priority 2007, published 2011).

Each structure is given as a SMILES string. Structures can show the parent of a compound that is named as a salt.

For series [1], the target named is T1, P2X4 receptor (Homo sapiens, UniProt Q99571).
T1 sequence (Q99571 1-388): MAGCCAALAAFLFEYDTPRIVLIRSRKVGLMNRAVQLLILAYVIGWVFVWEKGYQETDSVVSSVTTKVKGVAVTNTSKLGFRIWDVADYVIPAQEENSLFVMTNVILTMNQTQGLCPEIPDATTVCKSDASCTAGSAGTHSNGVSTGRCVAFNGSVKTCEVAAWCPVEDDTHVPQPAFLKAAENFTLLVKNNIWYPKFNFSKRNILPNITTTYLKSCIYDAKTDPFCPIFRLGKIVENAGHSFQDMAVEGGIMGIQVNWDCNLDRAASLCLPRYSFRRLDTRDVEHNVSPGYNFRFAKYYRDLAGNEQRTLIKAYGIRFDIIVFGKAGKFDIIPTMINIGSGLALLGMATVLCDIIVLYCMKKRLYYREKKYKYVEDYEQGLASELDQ
Description: P2X4 antagonism study by measurement of intracellular Ca2+ influx response. It is filed as cell-based. More on the design: expressed in transfected cells. Particulars: 1321N1 cells stably expressing human P2X4; 1 μM ATP; compound 15 min before ATP; Fura-2 F340/F380; read-out: Inhibitory activity: IC50. The method, then:
(§1) 1321N1 cells stably expressing human P2X4 receptors were adopted for calcium influx assay. P2X4/1321N1 cells were plated in 96-well assay plate and cultured 24 hours in an atmosphere of 5% CO2 at 37° C. Fura-2 AM calcium indicator in assay buffer (150 mM NaCl, 5 mM KCl, 1.8 mM CaCl2, 1.2 mM MgCl2, 10 mM D-glucose and 25 mM HEPES, pH 7.4) was loaded onto cells for 1 hour at room temperature and the fluorescence was detected by FLUOstar Optima micro plate reader (BMG labtech). The cells were alternatively illuminated with two excitations wavelengths (340 nm and 380 nm) via xenon lamp and the emitted fluorescence was measured at 510 nm. The fluorescence changes after the treatment of 1 μM ATP were monitored and determined the fluorescence ratio (F340/F380) as the index of intracellular calcium change. Tested compound were treated to cells 15 min before the addition of ATP and the inhibition activity of compounds was calculated by comparing the Ca^2+ response with control in the absence of tested compound.
as §1, with “pH7.4)” for “pH 7.4)”

In series [2] the target is T2, human Serotonin transporter (Homo sapiens, UniProt P31645).
T2 construct: expressed in transfected cells; cell membranes
Kind of series: [3H]paroxetine binding to serotonin transporter. Particulars: read-out: Percent inhibition (10^−7 M). As for the experimental part:
After incubation for 60 min at 25° C., the reaction was terminated by rapid filtration through GF/B glass fiber filter and rinsed with ice-cold incubation buffer. The retained radioactivity on filter was measured by a liquid scintillation counter. Nonspecific binding was defined with 10 μM imipramine and subtracted from total binding to determine specific binding. Inhibition activities of tested compounds were determined as a percent inhibition of the specific binding.

A further series concerns the target T3, serotonin reuptake (Rattus norvegicus, UniProt P31652).
T3 construct: synaptosomes prepared from the rat brain; from tissue; host or cells: rat brain synaptosomes
Kind of series: Serotonin reuptake inhibition assay ([3H]serotonin, synaptosomes prepared from the rat brain). It is filed as biochemical. As to conditions: 10^−7 M compound, 15 min at 37° C., read-out: Percent inhibition (10^−7 M).

Series [3] addresses T1, P2X4 receptor. Particulars: disclosed in WO 2007/049825 / Abstract P3-N-114; cited from earlier work.

T2 sequence (P31645 whole entry): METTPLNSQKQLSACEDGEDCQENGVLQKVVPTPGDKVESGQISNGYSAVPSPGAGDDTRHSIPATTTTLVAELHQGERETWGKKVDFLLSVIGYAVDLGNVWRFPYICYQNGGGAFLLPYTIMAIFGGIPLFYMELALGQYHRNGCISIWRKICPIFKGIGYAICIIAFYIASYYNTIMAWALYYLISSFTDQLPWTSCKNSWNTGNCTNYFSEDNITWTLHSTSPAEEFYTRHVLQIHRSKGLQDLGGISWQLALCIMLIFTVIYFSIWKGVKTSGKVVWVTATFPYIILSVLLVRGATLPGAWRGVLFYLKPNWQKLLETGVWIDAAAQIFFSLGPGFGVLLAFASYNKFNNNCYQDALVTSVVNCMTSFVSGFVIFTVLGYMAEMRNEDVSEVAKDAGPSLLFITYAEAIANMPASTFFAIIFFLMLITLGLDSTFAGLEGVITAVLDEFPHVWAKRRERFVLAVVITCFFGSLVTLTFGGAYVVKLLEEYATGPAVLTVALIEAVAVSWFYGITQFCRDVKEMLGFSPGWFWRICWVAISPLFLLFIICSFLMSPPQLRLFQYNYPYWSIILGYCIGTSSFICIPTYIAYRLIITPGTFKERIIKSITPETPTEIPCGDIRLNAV
T3 sequence (P31652 whole entry): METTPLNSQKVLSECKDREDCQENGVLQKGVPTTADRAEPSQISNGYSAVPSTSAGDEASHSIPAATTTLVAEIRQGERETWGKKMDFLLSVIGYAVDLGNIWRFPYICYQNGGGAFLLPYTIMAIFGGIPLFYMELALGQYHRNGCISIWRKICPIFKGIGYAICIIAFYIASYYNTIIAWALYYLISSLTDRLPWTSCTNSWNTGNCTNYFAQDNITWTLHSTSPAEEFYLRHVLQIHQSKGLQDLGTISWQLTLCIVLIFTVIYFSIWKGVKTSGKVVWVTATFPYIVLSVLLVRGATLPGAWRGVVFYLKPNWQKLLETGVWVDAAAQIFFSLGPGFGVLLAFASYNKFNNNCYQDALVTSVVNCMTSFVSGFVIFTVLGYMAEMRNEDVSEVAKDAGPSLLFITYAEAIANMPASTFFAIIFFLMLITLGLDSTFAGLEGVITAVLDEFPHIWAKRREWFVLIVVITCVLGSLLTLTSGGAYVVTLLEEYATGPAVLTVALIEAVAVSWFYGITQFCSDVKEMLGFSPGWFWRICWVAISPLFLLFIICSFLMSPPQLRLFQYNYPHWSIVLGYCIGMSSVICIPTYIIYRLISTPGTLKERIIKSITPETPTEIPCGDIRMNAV
Description for serotonin reuptake: 100 μg of the synaptosomes prepared from the rat brain were incubated for 15 min at 37° C. with 0.1 μCi [^3H]serotonin in the presence of tested compound in a buffer containing 106.2 mM NaCl, 4.5 mM KCl, 2.25 mM MgSO4, 1.08 mM NaH2PO4, 22.5 mM NaHCO3, 9.9 mM glucose, 9 μM EGTA and 45 μM ascorbic acid (pH 7.4). Basal control activity was determined by incubating the same mixture for 15 min at 4′C in the presence of 10 μM imipramine. Following incubation, the samples were filtered rapidly under vacuum through GF/B glass fiber filters and rinsed twice with ice-cold incubation buffer using a cell harvester. The retained radioactivity on filters was measured in TopCount scintillation counter. The results were expressed as a percent inhibition of the specific binding in the absence of tested compound.
100 μg of the synaptosomes prepared from the rat brain were incubated for 15 min at 37° C. with 0.1 μCi [^3H]serotonin in the presence of tested compound in a buffer containing 106.2 mM NaCl, 4.5 mM KCl, 2.25 mM MgSO4, 1.08 mm NaH2PO4, 22.5 mM NaHCO3, 9.9 mM glucose, 9 μM EGTA and 45 μM ascorbic acid (pH 7.4). Basal control activity was determined by incubating the same mixture for 15 min at 4° C. in the presence of 10 μM imipramine. […] The retained radioactivity on filters was measured in TopCount scintillation counter. […]

For the compound `Cc1cccc(C)c1N1CCNCC1COc1ccc(Cl)cc1.Cl` (centres unmarked), the melting point was 97 to 100 °C.

In the case of `CC(C)c1ccc(N2CCNCC2COc2ccc(Cl)cc2)cc1` (centres unmarked) [Example 1, 2-(4-Chlorophenoxymethyl)-1-(4-isopropylphenyl)piperazine hydrochloride], the IC50 at P2X4 receptor [1] was found to be 6.9 µM. Further, in series [2], the inhibition at 0.1 µM turned out to be 17%.

For `CCCc1ccc(N2CCNCC2COc2ccc(Cl)cc2)cc1` (centres unmarked) [Example 2, 2-(4-Chlorophenoxymethyl)-1-(4-propylphenyl)piperazine hydrochloride], the IC50 on P2X4 receptor [1] is 7.6 µM. For the same compound, the inhibition at 0.1 µM in series [2] worked out at 31%.

Turning to `CC(C)c1cccc(N2CCNCC2COc2ccc(Cl)cc2)c1` (centres unmarked) [Example 3, 2-(4-Chlorophenoxymethyl)-1-(3-isopropylphenyl)piperazine hydrochloride], the IC50 at P2X4 receptor [1] was determined as 8.3 µM. Further, in series [2], the inhibition at 0.1 µM came to 13%.

Take `Cc1cc(C)c(N2CCNCC2COc2ccc(Cl)cc2)c(C)c1` (centres unmarked) [Example 7, 2-(4-Chlorophenoxymethyl)-1-(2,4,6-trimethylphenyl)piperazine hydrochloride]: the IC50 on P2X4 receptor [1] was 3.1 µM. In addition, the inhibition at 0.1 µM in series [2] was 26%.

As to `Clc1ccc(OCC2CNCCN2c2ccc3c(c2)CCC3)cc1` (centres unmarked) [Example 10, 2-(4-Chlorophenoxymethyl)-1-indan-5-yl-piperazine hydrochloride], the IC50 at P2X4 receptor [1] stood at 4.7 µM. Also, the inhibition at 0.1 µM in series [2] is 44%.

Consider `CC(C)c1ccc(N2CCNCC2COc2ccc3c(c2)OCO3)cc1` (centres unmarked) [Example 11, 1-(4-Isopropylphenyl)-2-(3,4-methylenedioxyphenoxymethyl)piperazine hydrochloride], for which the IC50 on P2X4 receptor [1] turned out to be 7.4 µM.

In the case of `CC(C)c1cccc(N2CCNCC2COc2ccc(OC(C)(C)C)cc2)c1` (centres unmarked) [Example 13, 2-(4-tert-Butoxyphenoxymethyl)-1-(3-isopropylphenyl)piperazine hydrochloride], at P2X4 receptor [1], the IC50 turned out to be 2.9 µM.

In the case of `CC(C)c1ccc(N2CCNCC2COc2ccc(S(N)(=O)=O)cc2)cc1` (centres unmarked) [Example 15, 1-(4-Isopropylphenyl)-2-(4-sulfamoylphenoxymethyl)piperazine hydrochloride], the IC50 on P2X4 receptor [1] stood at 6.3 µM.

`CC(C)NS(=O)(=O)c1ccc(OCC2CNCCN2c2ccc(C(C)C)cc2)cc1` (centres unmarked) [Example 16, 1-(4-Isopropylphenyl)-2-[4-(isopropylsulfamoyl)phenoxymethyl]piperazine hydrochloride]: the IC50 on P2X4 receptor [1] was 2.8 µM. For the same compound, the inhibition at 0.1 µM at serotonin reuptake is 11%.

With `CC(C)c1ccc(N2CCNCC2CSc2ccc(Cl)cc2)cc1` (centres unmarked) [Example 17, 2-(4-Chlorophenylsulfanylmethyl)-1-(4-isopropylphenyl)piperazine hydrochloride], at P2X4 receptor [1], the IC50 is 8.1 µM. Moreover, at serotonin reuptake, the inhibition at 0.1 µM amounted to 4%.

`Fc1ccc([C@@H]2CCNC[C@H]2COc2ccc3c(c2)OCO3)cc1` [Paroxetine]: the “P2X4 receptor antagonism (in words)” value on P2X4 receptor [3] was “shows P2X4 receptor antagonism”.

Take `CN(C)CCCN1c2ccccc2CCc2ccccc21` [imipramine]: at P2X4 receptor [3], the “P2X4 receptor antagonism (in words)” value is recorded as “shows P2X4 receptor antagonism”.
